According to US20110306606A1, “NOVEL 2,6-SUBSTITUTED-3-NITROPYRIDINE DERIVATIVE, METHOD FOR PREPARING SAME, AND PHARMACEUTICAL COMPOSITION INCLUDING SAME” (priority 2008, published 2011):

System: Osteoblasts (Calvarial cells)
Assay: Cytotoxicity test (MTT)
Settings: 1 μM compound, 72 hours, in comparison with vehicle control

Row | SMILES | Cell viability (%) Calvarial cell
1 | CC1=NCCN1c1ccc([N+](=O)[O-])c(Nc2ccc(N3CCC(O)CC3)c(F)c2)n1 [Compound 240, 2-{[3-fluoro-4-(4-hydroxypiperidino)]phenylamino}-6-[(2-methyl-4,5-dihydro)imidazol-1-yl]-3-nitropyridine] | 97%
2 | CC(C)(C)Nc1ccc([N+](=O)[O-])c(Nc2ccc(N3CCC(O)CC3)c(F)c2)n1 [Compound 243, 2-{[3-fluoro-4-(4-hydroxypiperidino)]phenylamino}-6-(t-butylamino)-3-nitropyridine] | 97%
3 | O=[N+]([O-])c1ccc(N2CCNCC2)nc1Nc1ccc(N2CCC(O)CC2)c(F)c1 [Compound 245, 2-{[3-fluoro-4-(4-hydroxypiperidino)]phenylamino}-6-(piperazin-1-yl)-3-nitropyridine] | 101%
4 | O=[N+]([O-])c1ccc(N2CCOCC2)nc1Nc1ccc(N2CCC(O)CC2)c(F)c1 [Compound 247, 2-{[3-fluoro-4-(4-hydroxypiperidino)]phenylamino}-6-morpholino-3-nitropyridine] | 94%
5 | CNc1ccc([N+](=O)[O-])c(Nc2ccc(N3CCC(N)CC3)c(F)c2)n1 [Compound 248, 2-{[3-fluoro-4-(4-aminopiperidino)]phenylamino}-6-(methylamino)-3-nitropyridine] | 95%
6 | CC(C)Nc1ccc([N+](=O)[O-])c(Nc2ccc(N3CCC(N)CC3)c(F)c2)n1 [Compound 249, 2-{[3-fluoro-4-(4-aminopiperidino)]phenylamino}-6-(isopropylamino)-3-nitropyridine] | 101%
7 | CC(C)CNc1ccc([N+](=O)[O-])c(Nc2ccc(N3CCC(N)CC3)c(F)c2)n1 [Compound 250, 2-{[3-fluoro-4-(4-aminopiperidino)]phenylamino}-6-(isobutylamino)-3-nitropyridine] | 85%
8 | NC1CCN(c2ccc(Nc3nc(N4CCC(O)CC4)ccc3[N+](=O)[O-])cc2F)CC1 [Compound 251, 2-{[3-fluoro-4-(4-aminopiperidino)]phenylamino}-6-(4-hydroxypiperidino)-3-nitropyridine] | 97%
9 | CN1CCN(c2ccc([N+](=O)[O-])c(Nc3ccc(N4CCC(N)CC4)c(F)c3)n2)CC1 [Compound 254, 2-{[3-fluoro-4-(4-aminopiperidino)]phenylamino}-6-(4-methylpiperazin-1-yl)-3-nitropyridine] | 101%
10 | NC1CCN(c2ccc(Nc3nc(N4CCOCC4)ccc3[N+](=O)[O-])cc2F)CC1 [Compound 255, 2-{[3-fluoro-4-(4-aminopiperidino)]phenylamino}-6-morpholino-3-nitropyridine] | 100%
11 | NC1CCN(c2ccc([N+](=O)[O-])c(Nc3ccc(N4CCC(N)CC4)c(F)c3)n2)CC1 [Compound 256] | 104%
12 | NC1CCN(c2ccc(Nc3nc(NCCCN4CCOCC4)ccc3[N+](=O)[O-])cc2F)CC1 [Compound 260, 2-{[3-fluoro-4-(4-aminopiperidino)]phenylamino}-6-[(3-morpholin-1-yl)propylamino]-3-nitropyridine] | 107%
13 | CNc1ccc([N+](=O)[O-])c(Nc2ccc(N3CCCCC3C)c(F)c2)n1 (stereo not shown) [Compound 261, 2-{[3-fluoro-4-(2-methylpiperidino)]phenylamino}-6-(methylamino)-3-nitropyridine] | 114%
14 | CC(C)Nc1ccc([N+](=O)[O-])c(Nc2ccc(N3CCCCC3C)c(F)c2)n1 (stereo not shown) [Compound 262, 2-{[3-fluoro-4-(2-methylpiperidino)]phenylamino}-6-(isopropylamino)-3-nitropyridine] | 109%
15 | CC(C)CNc1ccc([N+](=O)[O-])c(Nc2ccc(N3CCCCC3C)c(F)c2)n1 (stereo not shown) [Compound 263, 2-{[3-fluoro-4-(2-methylpiperidino)]phenylamino}-6-(isobutylamino)-3-nitropyridine] | 108%
16 | CC1CCCCN1c1ccc(Nc2nc(NC(C)(C)C)ccc2[N+](=O)[O-])cc1F (stereo not shown) [Compound 264, 2-{[3-fluoro-4-(2-methylpiperidino)]phenylamino}-6-(t-butylamino)-3-nitropyridine] | 117%
17 | CC1CCCCN1c1ccc(Nc2nc(N3CCC(O)CC3)ccc2[N+](=O)[O-])cc1F (stereo not shown) [Compound 265, 2-{[3-fluoro-4-(2-methylpiperidino)]phenylamino}-6-(4-hydroxypiperidino)-3-nitropyridine] | 104%
18 | CC1=NCCN1c1ccc([N+](=O)[O-])c(Nc2ccc(N3CCCCC3C)c(F)c2)n1 (stereo not shown) [Compound 266] | 121%
19 | CC1CCCCN1c1ccc(Nc2nc(N3CCNCC3)ccc2[N+](=O)[O-])cc1F (stereo not shown) [Compound 267, 2-{[3-fluoro-4-(2-methylpiperidino)]phenylamino}-6-(piperazin-1-yl)-3-nitropyridine] | 107%

Row | SMILES | Cell viability (%) Calvarial cell
20 | CC1CCCCN1c1ccc(Nc2nc(N3CCN(C)CC3)ccc2[N+](=O)[O-])cc1F (stereo not shown) [Compound 268, 2-{[3-fluoro-4-(2-methylpiperidino)]phenylamino}-6-(4-methylpiperazin-1-yl)-3-nitropyridine] | 104%
21 | CC1CCCCN1c1ccc(Nc2nc(N3CCOCC3)ccc2[N+](=O)[O-])cc1F (stereo not shown) [Compound 269, 2-{[3-fluoro-4-(2-methylpiperidino)]phenylamino}-6-morpholino-3-nitropyridine] | 113%
22 | CC1CCCCN1c1ccc(Nc2nc(N3CCC(N)CC3)ccc2[N+](=O)[O-])cc1F (stereo not shown) [Compound 270, 2-{[3-fluoro-4-(2-methylpiperidino)]phenylamino}-6-(4-aminopiperidino)-3-nitropyridine] | 95%
23 | CC1CCCCN1c1ccc(Nc2nc(NCc3ccncc3)ccc2[N+](=O)[O-])cc1F (stereo not shown) [Compound 271, 2-{[3-fluoro-4-(2-methylpiperidino)]phenylamino}-6-[(4-pyridyl)methylamino]-3-nitropyridine] | 107%
24 | CC1CCCCN1c1ccc(Nc2nc(NCCCn3ccnc3)ccc2[N+](=O)[O-])cc1F (stereo not shown) [Compound 272, 2-{[3-fluoro-4-(2-methylpiperidino)]phenylamino}-6-[(3-imidazol-1-yl)propylamino]-3-nitropyridine] | 98%
25 | CC1CCCCN1c1ccc(Nc2nc(NCCN3CCOCC3)ccc2[N+](=O)[O-])cc1F (stereo not shown) [Compound 273, 2-{[3-fluoro-4-(2-methylpiperidino)]phenylamino}-6-[2-(morpholin-1-yl)ethylamino]-3-nitropyridine] | 115%
26 | CC1CCCCN1c1ccc(Nc2nc(NCCCN3CCOCC3)ccc2[N+](=O)[O-])cc1F (stereo not shown) [Compound 274, 2-{[3-fluoro-4-(2-methylpiperidino)]phenylamino}-6-[(3-morpholin-1-yl)propylamino]-3-nitropyridine] | 102%
27 | CNc1ccc([N+](=O)[O-])c(Nc2ccc(N3CCCC(CO)C3)c(F)c2)n1 (stereo not shown) [Compound 275, 2-{[3-fluoro-4-(3-hydroxymethylpiperidino)]phenylamino}-6-(methylamino)-3-nitropyridine] | 121%
28 | CC(C)Nc1ccc([N+](=O)[O-])c(Nc2ccc(N3CCCC(CO)C3)c(F)c2)n1 (stereo not shown) [Compound 276, 2-{[3-fluoro-4-(3-hydroxymethylpiperidino)]phenylamino}-6-(isopropylamino)-3-nitropyridine] | 102%
29 | CC(C)CNc1ccc([N+](=O)[O-])c(Nc2ccc(N3CCCC(CO)C3)c(F)c2)n1 (stereo not shown) [Compound 277, 2-{[3-fluoro-4-(3-hydroxymethylpiperidino)]phenylamino}-6-(isobutylamino)-3-nitropyridine] | 107%
30 | CC(C)(C)Nc1ccc([N+](=O)[O-])c(Nc2ccc(N3CCCC(CO)C3)c(F)c2)n1 (stereo not shown) [Compound 278, 2-{[3-fluoro-4-(3-hydroxymethylpiperidino)]phenylamino}-6-(t-butylamino)-3-nitropyridine] | 118%
31 | O=[N+]([O-])c1ccc(N2CCC(O)CC2)nc1Nc1ccc(N2CCCC(CO)C2)c(F)c1 (stereo not shown) [Compound 279, 2-{[3-fluoro-4-(3-hydroxymethylpiperidino)]phenylamino}-6-(4-hydroxypiperidino)-3-nitropyridine] | 102%
32 | CC1=NCCN1c1ccc([N+](=O)[O-])c(Nc2ccc(N3CCCC(CO)C3)c(F)c2)n1 (stereo not shown) [Compound 280, 2-{[3-fluoro-4-(3-hydroxymethylpiperidino)]phenylamino}-6-[(2-methyl-4,5-dihydro)imidazol-1-yl]-3-nitropyridine] | 103%
33 | O=[N+]([O-])c1ccc(N2CCNCC2)nc1Nc1ccc(N2CCCC(CO)C2)c(F)c1 (stereo not shown) [Compound 281, 2-{[3-fluoro-4-(3-hydroxymethylpiperidino)]phenylamino}-6-(piperazin-1-yl)-3-nitropyridine] | 107%
34 | CN1CCN(c2ccc([N+](=O)[O-])c(Nc3ccc(N4CCCC(CO)C4)c(F)c3)n2)CC1 (stereo not shown) [Compound 282, 2-{[3-fluoro-4-(3-hydroxymethylpiperidino)]phenylamino}-6-(4-methylpiperazin-1-yl)-3-nitropyridine] | 107%
35 | O=[N+]([O-])c1ccc(N2CCOCC2)nc1Nc1ccc(N2CCCC(CO)C2)c(F)c1 (stereo not shown) [Compound 283, 2-{[3-fluoro-4-(3-hydroxymethylpiperidino)]phenylamino}-6-morpholino-3-nitropyridine] | 103%
36 | NC1CCN(c2ccc([N+](=O)[O-])c(Nc3ccc(N4CCCC(CO)C4)c(F)c3)n2)CC1 (stereo not shown) [Compound 284, 2-{[3-fluoro-4-(3-hydroxymethylpiperidino)]phenylamino}-6-(4-aminopiperidino)-3-nitropyridine] | 100%
37 | O=[N+]([O-])c1ccc(NCc2cccnc2)nc1Nc1ccc(N2CCCC(CO)C2)c(F)c1 (stereo not shown) [Compound 285, 2-{[3-fluoro-4-(3-hydroxymethylpiperidino)]phenylamino}-6-[(3-pyridyl)methylamino]-3-nitropyridine] | 106%
